Experimental findings from patent US20240254129A1, “HETEROCYCLIC COMPOUNDS AND USES THEREOF” (Kumquat Biosciences Inc., priority 2021, published 2024) are described below.

Assay [1] concerns the target GST-tagged K-Ras mutant / His-tagged hSOS1 (Homo sapiens, UniProt P01116). In words: HTRF assay, K-Ras mutant / SOS1 interaction. It counts as binding. The conditions noted are these: read-out: IC50 against mutant Kras. The procedure, abridged: (§1)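 Compounds tested in duplicate from 10 μM down to 0.01 μM, incubated about 10 min or longer with GST-K-Ras/anti-GST-Eu and His-hSOS1/anti-6His-XL665 in ~5 mM HEPES pH 7.4 buffer with ~150 mM NaCl, DTT, BSA and Igepal. IC50 derived from 665/620 nm emission ratio.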
Background: Time-resolved FRET reads energy transfer from a long-lived donor to a nearby acceptor.

The next assay deals with T1, wildtype Kras / hSOS1 (Homo sapiens, UniProt P01116).
T1 construct: made in house; host or cells: E. coli BL21 (DE3)
T1 sequence (P01116 1-188 isoform P01116-2): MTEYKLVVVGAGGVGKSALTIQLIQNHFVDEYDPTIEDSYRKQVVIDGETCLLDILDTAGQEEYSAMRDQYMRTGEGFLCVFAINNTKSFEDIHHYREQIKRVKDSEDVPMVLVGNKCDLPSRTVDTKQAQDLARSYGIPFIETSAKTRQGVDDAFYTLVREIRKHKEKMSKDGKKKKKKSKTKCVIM
In words: HTRF assay, wildtype Kras / SOS1 interaction. Format: binding. The conditions noted are these: read-out: IC50 against wildtype Kras. The procedure, abridged:
as §1

The mark [2] stands for this setting: compound nos. 102-196, general methodology of example 5.
Where [3] appears, read: compound nos. 201-213, general methodology of example 5.

SMILES strings stand for the structures. Where two headings read alike, the source gives them in different places.

Chain of GST-tagged K-Ras mutant / His-tagged hSOS1 (P01116 whole entry G12D, form open): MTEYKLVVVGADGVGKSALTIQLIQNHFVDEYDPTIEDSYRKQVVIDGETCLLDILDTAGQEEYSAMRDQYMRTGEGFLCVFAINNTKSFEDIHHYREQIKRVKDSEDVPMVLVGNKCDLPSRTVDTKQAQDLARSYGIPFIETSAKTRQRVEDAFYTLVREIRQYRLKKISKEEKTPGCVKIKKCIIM

What is called IC50 is the concentration at which inhibition is half-maximal. Take `Cn1cnnc1COc1nc(N2CCNCC(F)(F)C2)c2cc(Cl)c(-c3cccc4sc(N)nc34)c(F)c2n1` [Compound 131, 4-(6-chloro-4-(6,6-difluoro-1,4-diazepan-1-yl)-8-fluoro-2-((4-methyl-4H-1,2,4-triazol-3-yl)methoxy)quin-azolin-7-yl)benzo[d]thiazol-2-amine]: the IC50 (in assay [1] (setting [2]); on wildtype Kras / hSOS1 (setting [2])) was over 0.5 µM each time.

With `CN1CCC[C@H]1COc1nc(N2CCCC(C(N)=O)CC2)c2cc(Cl)c(-c3cccc4sc(N)nc34)c(F)c2n1` (stereo partly drawn) [Compound 581, 1-(7-(2-aminobenzo[d]-thiazol-4-yl)-6-chloro-8-fluoro-2-(((S)-1-methyl-pyrrolidin-2-yl)methoxy)-quinazolin-4-yl)azepane-4-carboxamide], the 50% inhibitory concentration (IC50) was under 0.5 µM in assay [1] (compound nos. 401-703) and over 0.5 µM at wildtype Kras / hSOS1 (compound nos. 401-703).

In the case of `Nc1nc2c(-c3c(Cl)cc4c(N5CC6CCNCC6C5)nc(OC[C@@]56CCCN5C[C@H](F)C6)nc4c3F)ccc(F)c2s1` (stereo partly drawn) [Compound 566, 4-(6-chloro-8-fluoro-2-(((2R,7aS)-2-fluorotetra-hydro-1H-pyrrolizin-7a(5H)-yl)methoxy)-4-(octahydro-2H-pyrrolo[3,4-c]pyridin-2-yl)quinazolin-7-yl)-7-fluoro-benzo[d]thiazol-2-amine], the IC50 is under 0.5 µM in assay [1] (compound nos. 401-703) and over 0.5 µM at wildtype Kras / hSOS1 (compound nos. 401-703).

As for `Cc1nc(N2CCCCCC2)c2cc(Cl)c(-c3cccc4sc(N)nc34)cc2n1` [Compound 645, 4-(4-(azepan-1-yl)-6-chloro-2-methylquinazolin-7-yl)-benzo[d]thiazol-2-amine], the IC50 (in assay [1] (compound nos. 401-703); at wildtype Kras / hSOS1 (compound nos. 401-703)) was over 0.5 µM in each case.

On to `Nc1nc2c(-c3c(Cl)cc4c(N5CCCCC(F)C5)nc(OC[C@@]56CCCN5C[C@H](F)C6)nc4c3F)ccc(F)c2s1` (stereo partly drawn) [Compound 190, 4-(6-chloro-8-fluoro-4-(3-fluoroazepan-1-yl)-2-(((2R,7aS)-2-fluorotetra-hydro-1H-pyrrolizin-7a(5H)-yl)methoxy)quin-azolin-7-yl)-7-fluorobenzo-[d]thiazol-2-amine], for which the half-maximal inhibitory concentration (IC50) (in assay [1] (setting [2]); at wildtype Kras / hSOS1 (setting [2])) was under 0.5 µM in each case.

As to `Nc1nc2c(-c3c(Cl)cc4c(N5CCNCC(F)(F)C5)nc(OC[C@@]56CCCN5C[C@H](F)C6)nc4c3F)cccc2o1` [Compound 174, 4-(6-chloro-4-(6,6-difluoro-1,4-diazepan-1-yl)-8-fluoro-2-(((2R,7aS)-2-fluorotetra-hydro-1H-pyrrolizin-7a(5H)-yl)methoxy)quinazolin-7-yl)benzo[d]oxazol-2-amine], the IC50 (in assay [1] (setting [2]); at wildtype Kras / hSOS1 (setting [2])) was under 0.5 µM in each case.

In the case of `Nc1nc2c(-c3c(Cl)cc4c(N5C[C@H]6CC[C@@H](C5)N6)nc(OCC5(CN6CCCC6)CC5)nc4c3F)ccc(F)c2s1` [Compound 211, 4-(4-((1R,5S)-3,8-diaza-bicyclo[3.2.1]octan-3-yl)-6-chloro-8-fluoro-2-((1-(pyrrolidin-1-ylmethyl)-cyclopropyl)methoxy)quin-azolin-7-yl)-7-fluorobenzo-[d]thiazol-2-amine], the IC50 (in assay [1] (setting [3]); at wildtype Kras / hSOS1 (setting [3])) was under 1.5 µM throughout.

As to `CNCCN1CCCN(c2nc(OCC34CCCN3CCC4)nc3c(F)c(-c4ccc(F)c5sc(N)nc45)c(Cl)cc23)CC1` [Compound 575, 4-(6-chloro-8-fluoro-4-(4-(2-(methylamino)ethyl)-1,4-diazepan-1-yl)-2-((tetra-hydro-1H-pyrrolizin-7a(5H)-yl)methoxy)quinazolin-7-yl)-7-fluorobenzo[d]thiazol-2-amine], the values for the IC50 (in assay [1] (compound nos. 401-703); on wildtype Kras / hSOS1 (compound nos. 401-703)) were under 0.5 µM and over 0.5 µM, respectively.

Turning to `COc1nc2c(N3C[C@H]4CC[C@@H](C3)N4)nc(OCC34CCCN3CCC4)nc2cc1-c1cc(O)cc2ccccc12` [Compound 545, 4-(4-((1R,5S)-3,8-diazabicyclo[3.2.1]octan-3-yl)-6-methoxy-2-((tetrahydro-1H-pyrrolizin-7a(5H)-yl)methoxy)pyrido[3,2-d]pyrimidin-7-yl)naphthalen-2-ol], the IC50 (in assay [1] (compound nos. 401-703); at wildtype Kras / hSOS1 (compound nos. 401-703)) was over 0.5 µM each time.

Take `Nc1nc2c(-c3c(Cl)cc4c(N5C6CCCC5CNC6)nc(OC[C@@]56CCCN5C[C@H](F)C6)nc4c3F)ccc(F)c2s1` [Compound 302, 4-(4-(3,9-diazabicyclo-[3.3.1]nonan-9-yl)-6-chloro-8-fluoro-2-(((2R,7aS)-2-fluorotetrahydro-1H-pyrrolizin-7a(5H)-yl)meth-oxy)quinazolin-7-yl)-7-fluorobenzo[d]thiazol-2-amine]: the IC50 (in assay [1] (compound nos. 301-306); at wildtype Kras / hSOS1 (compound nos. 301-306)) was under 1.5 µM each time.

As for `CN1CCC[C@H]1COc1nc(N2CCNC3COCC32)c2cc(Cl)c(-c3cccc4sc(N)nc34)c(F)c2n1` (stereo partly drawn) [Compound 107, 4-(6-chloro-8-fluoro-4-(hexahydrofuro[3,4-b]pyr-azin-1(2H)-yl)-2-(((S)-1-methylpyrrolidin-2-yl)meth-oxy)quinazolin-7-yl)benzo-[d]thiazol-2-amine], the half-inhibitory concentration (IC50) (in assay [1] (setting [2]); on wildtype Kras / hSOS1 (setting [2])) was over 0.5 µM in each case.

For the molecule `CN1CCC[C@H]1COc1nc(N2CCNCC(F)(F)C2)c2cc(Cl)c(-c3cccc4cnc(N)nc34)c(F)c2n1` [Compound 602, 6-chloro-4-(6,6-difluoro-1,4-diazepan-1-yl)-8-fluoro-2-(((S)-1-methylpyrrolidin-2-yl)methoxy)-[7,8′-biquin-azolin]-2′-amine], the IC50 (in assay [1] (compound nos. 401-703); on wildtype Kras / hSOS1 (compound nos. 401-703)) was over 0.5 µM in each case.

With `CN1CCC[C@H]1COc1nc(N2CCCCC(N)C2)c2cc(Cl)c(-c3cccc4sc(N)nc34)c(F)c2n1` (stereo partly drawn) [Compound 442, 4-(4-(3-aminoazepan-1-yl)-6-chloro-8-fluoro-2-(((S)-1-methylpyrrolidin-2-yl)-methoxy)quinazolin-7-yl)-benzo[d]thiazol-2-amine], the IC50 (in assay [1] (compound nos. 401-703); on wildtype Kras / hSOS1 (compound nos. 401-703)) was under 0.5 µM each time.

Take `Nc1nc2c(-c3c(Cl)cc4c(N5C[C@H]6CC[C@@H](C5)N6)nc(OC[C@@]56CCCN5C[C@H](F)C6)nc4c3F)ccc(F)c2s1` [Compound 206, 4-(4-((1R,5S)-3,8-diaza-bicyclo[3.2.1]octan-3-yl)-6-chloro-8-fluoro-2-(((2R,7aS)-2-fluorotetra-hydro-1H-pyrrolizin-7a(5H)-yl)methoxy)quinazolin-7-yl)-7-fluorobenzo[d]thiazol-2-amine]: the IC50 (in assay [1] (setting [3]); at wildtype Kras / hSOS1 (setting [3])) was under 1.5 µM in each case.

As to `Nc1nc2c(-c3c(Cl)cc4c(N5CC6CCC(C5)N6)nc(OCC5(CN6CCCC6)CC5)nc4c3F)cccc2o1` [Compound 653, 4-(4-(3,8-diazabicyclo-[3.2.1]octan-3-yl)-6-chloro-8-fluoro-2-((1-(pyrrolidin-1-ylmethyl)cyclopropyl)meth-oxy)quinazolin-7-yl)benzo-[d]oxazol-2-amine], the IC50 in assay [1] (compound nos. 401-703) was under 0.5 µM; on wildtype Kras / hSOS1 (compound nos. 401-703), over 0.5 µM.

In the case of `CN(C)C/C=C/C(=O)N1CC2(CCCN(c3nc(OC[C@@]45CCCN4C[C@H](F)C5)nc4c(F)c(-c5ccc(F)c6sc(N)c(C#N)c56)c(Cl)cc34)C2)C1` [Compound 522, 2-amino-4-(6-chloro-4-(2-((E)-4-(dimethylamino)but-2-enoyl)-2,6-diazaspiro[3.5]nonan-6-yl)-8-fluoro-2-(((2R,7aS)-2-fluorotetrahydro-1H-pyrrolizin-7a(5H)-yl)methoxy)quinazolin-7-yl)-7-fluorobenzo[b]thiophene-3-carbonitrile], the IC50 in assay [1] (compound nos. 401-703) is under 0.5 µM; on wildtype Kras / hSOS1 (compound nos. 401-703), over 0.5 µM.
